Columns and labels:
[1] = system: HCV replicon with a D168V mutation in a 1a-H77 background; assay: transient replicon assay, D168V mutation in 1a-H77 background; format: cell-based, hepatitis C virus (genotype 1a-H77); settings: Hepatitis C virus, read-out: EC50 in a transient replicon assay with a D168V mutation in a 1a-H77 background
Outline: (§1)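 Transient transfection of mutant replicon RNA (1a-H77 with NS2–NS5B, or 1b-N with NS3–NS5B plus E1202G/S2204I) by electroporation into IFN-cured Huh7 cells, plated at 7.5×10^3 cells per well in DMEM with 5% FBS. Serial compound dilutions added 4 h post-transfection (0.5% DMSO final).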

[2] = system: HCV replicon with a D168E mutation in a 1a-H77 background; assay: transient replicon assay, D168E mutation in 1a-H77 background; format: cell-based, hepatitis C virus (genotype 1a-H77); settings: Hepatitis C virus, read-out: EC50 in a transient replicon assay with a D168E mutation in a 1a-H77 background
Outline: as §1

[3] = system: HCV replicon with a R155K mutation in a 1b-N background; assay: transient replicon assay, R155K mutation in 1b-N background; format: cell-based, hepatitis C virus (genotype 1b-N); settings: Hepatitis C virus, read-out: EC50 in a transient replicon assay with a R155K mutation in a 1b-N background
Protocol: Replicon cell lines can be maintained in Dulbecco's modified Eagles medium (DMEM) containing 100 IU/ml penicillin, […] streptomycin (Invitrogen), […] G418 (Invitrogen) and 10% (v/v) fetal bovine serum (FBS). Replicon-containing cells can be seeded into 96 well plates at a density of 5000 cells per well in 100 μl DMEM containing 5% FBS. The next day, the compound can be initially diluted in dimethyl sulfoxide (DMSO) to generate a 200× stock of the inhibitor in a series of 8 half-log dilutions. The dilution series can then be diluted 100-fold in the medium containing 5% FBS. […] The inhibitory effects of compounds against the replicons can be determined by measuring either the level of luciferase or HCV RNA. […] Luciferin solution (50 μl, Promega) is added, and luciferase activity is measured with a Victor II luminometer (Perkin-Elmer). To determine HCV RNA levels, RNA extractions can be performed using the CellsDirect kit (Invitrogen), and the HCV RNA copy number can be measured using the SuperScript III Platinum One-Step qRT-PCR system (Invitrogen) and primers specific to the HCV 5′ nontranslated region. Cytotoxicity can be determined by the 3-[4,5-dimethylhiazol-2-yl]-2,5-diphenyltetrazolium bromide (MTT) colorimetric assay as follows. […] The plates are incubated overnight and the optical density can be measured at 570 nm. […]

CCc1nc2cccc(F)c2nc1O[C@@H]1C[C@H]2C(=O)N[C@]3(C(=O)NS(=O)(=O)C4(C)CC4)C[C@H]3/C=C\CCCCC[C@H](NC(=O)OC(C)(C)C)C(=O)N2C1 [Example 164, tert-butyl (2R,6S,13aS,14aR,16aS,Z)-2-(3-ethyl-8-fluoroquinoxalin-2-yloxy)-14a-(1-methylcyclopropylsulfonylcarbamoyl)-5,16-dioxo-1,2,3,5,6,7,8,9,10,11,13a,14,14a,15,16,16a-hexadecahydrocyclopropa[e]pyrrolo[1,2-a][1,4]diazacyclopentadecin-6-ylcarbamate] showed an EC50 [1] of 0.05 to 0.25 µM, an EC50 [2] of 0.02 to 0.05 µM and an EC50 [3] of 0.001 to 0.01 µM.

— patent US9493506B2 (Enanta Pharmaceuticals, Inc., priority 2010, dated 2016)
